# Where two headings read alike, the source gives them in different places.
# Columns and labels:
# B. pertussis [1] = format: cell-based, Bordetella pertussis; settings: for Growth: 53 h; for Biomass yield after 53 h: sole sulfur source, 35° C.; for Support of growth as the sole source of sulfur: medium containing no other S source
# B. pertussis [2] = assay: Growth in minimal media containing only one amino acid, shake-flasks; format: cell-based, Bordetella pertussis; settings: L-cysteine 125 mM as single amino acid, no thiosulfate added
# Procedure: Assays were performed in order to determine whether growth of B. pertussis is possible in minimal media containing a single amino acid as the sole source of carbon and nitrogen. A shake-flask containing 7.5 ml fresh medium (B-CDM containing 0.604 g/L niacin) was inoculated with 10^9 B. pertussis CFUs and incubated at 35° C. (+/−1° C.) and 150 rpm for 24 h (+/−5 h). Cells were harvested by centrifugation, washed twice with NaCl 0.9% (w/v), and resuspended in fresh medium (see composition in Table 12) at a theoretical OD650 nm of 0.5, as calculated from the OD650 nm of the culture before harvest. 1 ml of this cell suspension was used to inoculate shake-flasks containing 30 ml of the medium in Table 12, supplemented with a single amino acid (L-cysteine 125 mM, L-proline 125 mM, L-glutamate 125 mM, L-glutamine 125 mM, L-aspartate 30 mM, L-asparagine 125 mM, L-serine 125 mM, or L-alanine 125 mM) as a source of C and N, and thiosulfate 0.25 mM as a source of S (except for L-Cys supplementation, where no thiosulfate was added). The same medium with ammonium chloride (25 mM) and thiosulfate (0.25 mM), but no amino acid, was used as a negative control. The shake flasks were then incubated for approximately 10 days at 35° C. under constant shaking (150 rpm). Growth was monitored as OD650 nm.
# Bordetella pertussis = format: cell-based
# B. pertussis [3] = format: cell-based, Bordetella pertussis
# [4] = buffer 6.1 g/L, control conditions
# [5] = buffer 2.5 g/L, relative to Tris control
# [6] = buffer 5.0 g/L, relative to Tris control
# [7] = buffer 10.0 g/L, relative to Tris control
# [8] = buffer 20.0 g/L, relative to Tris control
molecule,measurement,setting,value
N[C@@H](CS)C(=O)O [L-cysteine],Growth,B. pertussis [1]; 27 mM in medium,+
same,Biomass yield after 53 h,B. pertussis [1]; 27 mM in medium,0.512 OD650nm
same,Need for an additional source of sulfur,B. pertussis [2],no additional source of sulfur was required
[Cl][Cu][Cl] [CuCl2],Biomass yield,Bordetella pertussis,significant increase
O=S([O-])[O-].[Na+].[Na+] [disodium sulfite],Growth,B. pertussis [1]; 1 mM in medium,−
same,Biomass yield after 53 h,B. pertussis [1]; 1 mM in medium,0.011 OD650nm
same,Biomass yield after 53 h,B. pertussis [1]; 12 mM in medium,0.007 OD650nm
same,Support of growth as the sole source of sulfur,B. pertussis [1],not able to support growth
O=S(=O)([O-])[O-].[Na+].[Na+] [disodium sulfate],Growth,B. pertussis [1]; 12 mM in medium,−
same,Biomass yield after 53 h,B. pertussis [1]; 12 mM in medium,0.015 OD650nm
same,Support of growth as the sole source of sulfur,B. pertussis [1],not able to support growth
tris(hydroxymethyl)aminomethane,Relative biomass yield after 24 h,B. pertussis [3]; [4],100%
same,Relative biomass yield after 48 h,B. pertussis [3]; [4],100%
"O=S(=O)(O)CCCN1CCOCC1 [MOPS, 3-(N-morpholino)propanesulfonic acid]",Support of growth as buffer in B-CDM,B. pertussis [3],able to support growth
same,Relative biomass yield after 24 h,B. pertussis [3]; [5],114%
same,Relative biomass yield after 48 h,B. pertussis [3]; [5],91%
same,Relative biomass yield after 24 h,B. pertussis [3]; [6],85%
same,Relative biomass yield after 48 h,B. pertussis [3]; [6],88%
same,Relative biomass yield after 24 h,B. pertussis [3]; [7],111%
same,Relative biomass yield after 48 h,B. pertussis [3]; [7],84%
same,Relative biomass yield after 24 h,B. pertussis [3]; [8],81%
same,Relative biomass yield after 48 h,B. pertussis [3]; [8],76%
O=P(O)(O)OC(CO)CO [β-glycerophosphate],Support of growth as buffer in B-CDM,B. pertussis [3],able to support growth
same,Relative biomass yield after 24 h,B. pertussis [3]; [5],88%
same,Relative biomass yield after 48 h,B. pertussis [3]; [5],79%
same,Relative biomass yield after 24 h,B. pertussis [3]; [6],89%
same,Relative biomass yield after 48 h,B. pertussis [3]; [6],67%
same,Relative biomass yield after 24 h,B. pertussis [3]; [7],68%
same,Relative biomass yield after 48 h,B. pertussis [3]; [7],59%
same,Relative biomass yield after 24 h,B. pertussis [3]; [8],46%
same,Relative biomass yield after 48 h,B. pertussis [3]; [8],45%
O=S(O)(O)=S [disodium thiosulfate],Growth,B. pertussis [1]; 1 mM in medium,+
same,Biomass yield after 53 h,B. pertussis [1]; 1 mM in medium,0.227 OD650nm
same,Growth,B. pertussis [1]; 12 mM in medium,+
same,Biomass yield after 53 h,B. pertussis [1]; 12 mM in medium,0.472 OD650nm
same,Support of growth as the sole source of sulfur,B. pertussis [1],growth was observed

# — patent US9765294B2 (priority 2013, dated 2017)
